{
  "source": "patent US20230158005A1",
  "about": "(priority 2020, published 2023)",
  "key": {"[1]": {"system": "A/Hong Kong/156/1997 (H5N1)", "type": "cell-based, influenza A virus"}, "[2]": {"system": "A/Indonesia/05/2005 (H5N1)", "type": "cell-based, influenza A virus"}, "[3]": {"system": "A/New Jersey/8/1976 (H1N1)", "type": "cell-based, influenza A virus"}, "[4]": {"system": "A/California/02/2014 (H3N2)", "type": "cell-based, influenza A virus"}, "[5]": {"system": "A/Minnesota/19/2011 (H1N1)", "type": "cell-based, influenza A virus"}, "[6]": {"system": "A/Solomon Islands/03/2006 (H1N1)", "type": "cell-based, influenza A virus"}, "A/Texas/71/2007 (H3N2)": {"system": "A/Texas/71/2007 (H3N2)", "type": "cell-based, influenza A virus"}, "[7]": {"system": "A/California/07/2009 (H1N1)", "type": "cell-based, influenza A virus"}, "A/USSR/90/1977 (H1N1)": {"system": "A/USSR/90/1977 (H1N1)", "type": "cell-based, influenza A virus"}, "[8]": {"system": "A/New Caledonia/20/1999 (H1N1)", "type": "cell-based, influenza A virus"}, "A/Anhui/1/2013 (H7N9)": {"system": "A/Anhui/1/2013 (H7N9)", "type": "cell-based, influenza A virus"}, "A/Alaska/140/2015 (H3N2)": {"system": "A/Alaska/140/2015 (H3N2)", "type": "cell-based, influenza A virus"}, "A/Fujian/413/2002 (H3N2)": {"system": "A/Fujian/413/2002 (H3N2)", "type": "cell-based, influenza A virus"}, "A/Perth/16/2009 (H3N2)": {"system": "A/Perth/16/2009 (H3N2)", "type": "cell-based, influenza A virus"}, "[9]": {"system": "A/Vietnam/1203/2004 (H5N1)", "type": "cell-based, influenza A virus"}, "A/Indiana/08/2011 (H3N2)": {"system": "A/Indiana/08/2011 (H3N2)", "type": "cell-based, influenza A virus"}, "[10]": {"system": "A/Egypt/N6658/2011 (H5N1)", "type": "cell-based, influenza A virus"}, "[11]": {"system": "A/Puerto Rico/8/1934 (H1N1)", "type": "cell-based, influenza A virus"}, "A/Hawaii/15/2001 (H1N1)": {"system": "A/Hawaii/15/2001 (H1N1)", "type": "cell-based, influenza A virus"}, "[12]": {"system": "A549 human lung carcinoma cells"}},
  "note": "Values joined by “and” are separate entries in the source; they are usually repeats but may differ in a detail not shown here. Equal entries are not always repeated.",
  "data": [
    {"smiles": "CCOC(=O)C1=C[C@@H](OC(CC)CC)[C@H](NC(C)=O)[C@@H](N)C1", "note": "[Oseltamivir, oseltamivir, reference compound]", "values": [
      {"measurement": "DIF (Difference from Control)", "setting": "[1]", "value": -3.08, "unit": "log10TCID50/mL"},
      {"measurement": "Virus titer AVG", "setting": "[1]", "value": 1.50, "unit": "log10TCID50/mL"},
      {"measurement": "Virus titer, replicates 1-3", "setting": "[1]", "value": 1.50, "unit": "log10TCID50/mL"},
      {"measurement": "DIF (Difference from Control)", "setting": "[2]", "value": -3.50, "unit": "log10TCID50/mL"},
      {"measurement": "Virus titer AVG", "setting": "[2]", "value": 4.58, "unit": "log10TCID50/mL"},
      {"measurement": "Virus titer, replicates 1-3", "setting": "[2]", "value": "4.75 log10TCID50/mL and 4.50 log10TCID50/mL (2×)"},
      {"measurement": "DIF (Difference from Control)", "setting": "[3]", "value": -3.58, "unit": "log10TCID50/mL"},
      {"measurement": "Virus titer AVG", "setting": "[3]", "value": 1.50, "unit": "log10TCID50/mL"},
      {"measurement": "Virus titer, replicates 1-3", "setting": "[3]", "value": 1.50, "unit": "log10TCID50/mL"},
      {"measurement": "DIF (Difference from Control)", "setting": "[4]", "value": -1.58, "unit": "log10TCID50/mL"},
      {"measurement": "Virus titer AVG", "setting": "[4]", "value": 4.92, "unit": "log10TCID50/mL"},
      {"measurement": "Virus titer, replicates 1-3", "setting": "[4]", "value": "5.25 log10TCID50/mL and 4.75 log10TCID50/mL (2×)"},
      {"measurement": "DIF (Difference from Control)", "setting": "[5]", "value": -7.33, "unit": "log10TCID50/mL"},
      {"measurement": "Virus titer AVG", "setting": "[5]", "value": 1.50, "unit": "log10TCID50/mL"},
      {"measurement": "Virus titer, replicates 1-3", "setting": "[5]", "value": 1.50, "unit": "log10TCID50/mL"},
      {"measurement": "DIF (Difference from Control)", "setting": "[6]", "value": -4.25, "unit": "log10TCID50/mL"},
      {"measurement": "Virus titer AVG", "setting": "[6]", "value": 3.25, "unit": "log10TCID50/mL"},
      {"measurement": "Virus titer, replicates 1-3", "setting": "[6]", "value": "3.75 log10TCID50/mL and 3.25 log10TCID50/mL and 2.75 log10TCID50/mL"},
      {"measurement": "DIF (Difference from Control)", "setting": "A/Texas/71/2007 (H3N2)", "value": -0.83, "unit": "log10TCID50/mL"},
      {"measurement": "Virus titer AVG", "setting": "A/Texas/71/2007 (H3N2)", "value": 4.00, "unit": "log10TCID50/mL"},
      {"measurement": "Virus titer, replicates 1-3", "setting": "A/Texas/71/2007 (H3N2)", "value": "3.50 log10TCID50/mL and 4.75 log10TCID50/mL and 3.75 log10TCID50/mL"},
      {"measurement": "DIF (Difference from Control)", "setting": "[7]", "value": -3.00, "unit": "log10TCID50/mL"},
      {"measurement": "Virus titer AVG", "setting": "[7]", "value": 2.58, "unit": "log10TCID50/mL"},
      {"measurement": "Virus titer, replicates 1-3", "setting": "[7]", "value": "2.75 log10TCID50/mL and 2.50 log10TCID50/mL (2×)"},
      {"measurement": "DIF (Difference from Control)", "setting": "A/USSR/90/1977 (H1N1)", "value": -4.33, "unit": "log10TCID50/mL"},
      {"measurement": "Virus titer AVG", "setting": "A/USSR/90/1977 (H1N1)", "value": 2.42, "unit": "log10TCID50/mL"},
      {"measurement": "Virus titer, replicates 1-3", "setting": "A/USSR/90/1977 (H1N1)", "value": "2.50 log10TCID50/mL (2×) and 2.25 log10TCID50/mL"},
      {"measurement": "DIF (Difference from Control)", "setting": "[8]", "value": -5.67, "unit": "log10TCID50/mL"},
      {"measurement": "Virus titer AVG", "setting": "[8]", "value": 1.50, "unit": "log10TCID50/mL"},
      {"measurement": "Virus titer, replicates 1-3", "setting": "[8]", "value": 1.50, "unit": "log10TCID50/mL"},
      {"measurement": "DIF (Difference from Control)", "setting": "A/Anhui/1/2013 (H7N9)", "value": -2.25, "unit": "log10TCID50/mL"},
      {"measurement": "Virus titer AVG", "setting": "A/Anhui/1/2013 (H7N9)", "value": 1.50, "unit": "log10TCID50/mL"},
      {"measurement": "Virus titer, replicates 1-3", "setting": "A/Anhui/1/2013 (H7N9)", "value": 1.50, "unit": "log10TCID50/mL"},
      {"measurement": "DIF (Difference from Control)", "setting": "A/Alaska/140/2015 (H3N2)", "value": -3.83, "unit": "log10TCID50/mL"},
      {"measurement": "Virus titer AVG", "setting": "A/Alaska/140/2015 (H3N2)", "value": 2.92, "unit": "log10TCID50/mL"},
      {"measurement": "Virus titer, replicates 1-3", "setting": "A/Alaska/140/2015 (H3N2)", "value": "2.50 log10TCID50/mL (2×) and 3.75 log10TCID50/mL"},
      {"measurement": "DIF (Difference from Control)", "setting": "A/Fujian/413/2002 (H3N2)", "value": -0.58, "unit": "log10TCID50/mL"},
      {"measurement": "Virus titer AVG", "setting": "A/Fujian/413/2002 (H3N2)", "value": 2.75, "unit": "log10TCID50/mL"},
      {"measurement": "Virus titer, replicates 1-3", "setting": "A/Fujian/413/2002 (H3N2)", "value": "3.25 log10TCID50/mL and 2.50 log10TCID50/mL (2×)"},
      {"measurement": "DIF (Difference from Control)", "setting": "A/Perth/16/2009 (H3N2)", "value": 0.00, "unit": "log10TCID50/mL"},
      {"measurement": "Virus titer AVG", "setting": "A/Perth/16/2009 (H3N2)", "value": 4.25, "unit": "log10TCID50/mL"},
      {"measurement": "Virus titer, replicates 1-3", "setting": "A/Perth/16/2009 (H3N2)", "value": 4.25, "unit": "log10TCID50/mL"},
      {"measurement": "DIF (Difference from Control)", "setting": "[9]", "value": -2.75, "unit": "log10TCID50/mL"},
      {"measurement": "Virus titer AVG", "setting": "[9]", "value": 5.17, "unit": "log10TCID50/mL"},
      {"measurement": "Virus titer, replicates 1-3", "setting": "[9]", "value": "5.25 log10TCID50/mL and 5.50 log10TCID50/mL and 4.75 log10TCID50/mL"},
      {"measurement": "DIF (Difference from Control)", "setting": "A/Indiana/08/2011 (H3N2)", "value": -5.08, "unit": "log10TCID50/mL"},
      {"measurement": "Virus titer AVG", "setting": "A/Indiana/08/2011 (H3N2)", "value": 3.25, "unit": "log10TCID50/mL"},
      {"measurement": "Virus titer, replicates 1-3", "setting": "A/Indiana/08/2011 (H3N2)", "value": "2.75 log10TCID50/mL and 3.75 log10TCID50/mL and 3.25 log10TCID50/mL"},
      {"measurement": "DIF (Difference from Control)", "setting": "[10]", "value": -3.25, "unit": "log10TCID50/mL"},
      {"measurement": "Virus titer AVG", "setting": "[10]", "value": 2.08, "unit": "log10TCID50/mL"},
      {"measurement": "Virus titer, replicates 1-3", "setting": "[10]", "value": "2.25 log10TCID50/mL and 1.50 log10TCID50/mL and 2.50 log10TCID50/mL"},
      {"measurement": "DIF (Difference from Control)", "setting": "[11]", "value": -2.25, "unit": "log10TCID50/mL"},
      {"measurement": "Virus titer AVG", "setting": "[11]", "value": 3.25, "unit": "log10TCID50/mL"},
      {"measurement": "Virus titer, replicates 1-3", "setting": "[11]", "value": "3.75 log10TCID50/mL and 3.25 log10TCID50/mL and 2.75 log10TCID50/mL"},
      {"measurement": "DIF (Difference from Control)", "setting": "A/Hawaii/15/2001 (H1N1)", "value": -1.92, "unit": "log10TCID50/mL"},
      {"measurement": "Virus titer AVG", "setting": "A/Hawaii/15/2001 (H1N1)", "value": 2.67, "unit": "log10TCID50/mL"},
      {"measurement": "Virus titer, replicates 1-3", "setting": "A/Hawaii/15/2001 (H1N1)", "value": "2.75 log10TCID50/mL (2×) and 2.50 log10TCID50/mL"},
      {"measurement": "% Dif (absorbance as percent relative to the vehicle control, relative viability)", "setting": "[12]", "value": 83.88, "unit": "%"}
    ]}
  ]
}
